Reference: article PMC5441137, “Positively Selected Sites at HCMV gB Furin Processing Region and Their Effects in Cleavage Efficiency” (Frontiers in Microbiology, 2017)

How the values were obtained:
recombinant human furin [1] = molecular target: T1, recombinant human furin (Homo sapiens, UniProt P09958); assay: FRET peptide enzymatic kinetics assay of cleavage by furin; type: biochemical; conditions: for Km / kcat: FRET peptide as furin substrate, 10 mM MES, 1 mM CaCl2, pH 7.0, 37°C, fluorescence λex 320 nm/λem 420 nm, non-linear Michaelis-Menten fit (Grafit)
T1 construct: made in house
T1 sequence (P09958 108-794): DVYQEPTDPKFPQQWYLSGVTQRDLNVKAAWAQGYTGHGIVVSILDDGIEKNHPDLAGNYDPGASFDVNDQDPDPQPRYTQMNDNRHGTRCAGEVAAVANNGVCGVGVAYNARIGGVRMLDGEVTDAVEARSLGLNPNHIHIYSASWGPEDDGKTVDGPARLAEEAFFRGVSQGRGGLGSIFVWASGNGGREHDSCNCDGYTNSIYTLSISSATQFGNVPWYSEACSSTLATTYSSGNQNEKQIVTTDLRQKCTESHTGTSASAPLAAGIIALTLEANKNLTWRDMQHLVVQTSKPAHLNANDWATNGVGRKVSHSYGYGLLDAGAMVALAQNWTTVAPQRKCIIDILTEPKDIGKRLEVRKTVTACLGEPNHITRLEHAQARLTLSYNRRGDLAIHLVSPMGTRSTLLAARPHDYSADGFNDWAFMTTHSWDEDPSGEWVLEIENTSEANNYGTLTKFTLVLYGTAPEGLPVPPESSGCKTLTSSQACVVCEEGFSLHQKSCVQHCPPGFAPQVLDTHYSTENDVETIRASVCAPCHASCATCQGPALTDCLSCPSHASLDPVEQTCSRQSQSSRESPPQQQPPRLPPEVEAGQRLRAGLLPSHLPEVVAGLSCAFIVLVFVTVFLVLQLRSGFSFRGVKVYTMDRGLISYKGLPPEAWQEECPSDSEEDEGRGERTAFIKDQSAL
Method: Recombinant human furin was expressed and purified as previously described ([Kacprzak et al., 2004]). The enzyme concentration was determined by active site titration using the inhibitor decanoyl-RVKR-CMK inhibitor in 10 mM MES buffer, 1 mM CaCl2, pH 7.0 and the substrate Abz-GIRRKRSVSHQ-EDDnp.
Seven synthetic peptides were obtained by solid-phase strategy, as previously described ([Izidoro et al., 2010]) using the Fmoc-procedure in an automated multiple solid-phase peptide synthesizer (PSSM 8 system, Shimadzu, Japan) ([Hirata et al., 1995]; [Korkmaz et al., 2008]). Peptides were prepared in dimethylformamide and stock concentrations measured spectrophotometrically at 365 nm (e = 17,300 M^-1.cm^-1). The quantum yields of the FRET peptides and the products of their hydrolysis were unchanged in all tested conditions.
The FRET peptides were assayed in 10 mM MES, 1 mM CaCl2, pH 7.0, using a F-2500 spectrofluorimeter (Hitachi, Tokyo, Japan), at 37°C ([Izidoro et al., 2010]), as previously described. Fluorescence changes were monitored continuously at λex = 320 nm and λem = 420 nm. The enzyme concentrations for initial rate determinations were chosen at a level intended to hydrolyze less than 5% of the amount of added substrate over the time course of data collection.
Three kinetic parameters from the Michaelis-Menten model were analyzed, representing enzyme-substrate (km), the catalysis constant (kcat) and the kcat/km ratio. The kinetic parameters km and kcat were calculated by non-linear regression using Grafit software (Erithacus Software, Horley, Surrey, UK). km, kcat, and standard errors (less than 10%) were calculated using Grafit software (v.5.0.13, Erithacus Software, Horley, Surrey, UK) with a non-linear least squares Michaelis-Menten fit associated with a matrix invertion fitting routine to refine kcat, km and allowing estimation of the errors. Standard deviations greater than 10% are due to low values obtained.

recombinant human furin [2] = molecular target: T1, recombinant human furin; assay: Analysis of furin-processed FRET substrates by LC-MS / HPLC / Maldi-TOF; type: biochemical; conditions: FRET peptide 5 μM, spectrofluorimeter and Maldi-TOF after 2 h of incubation with furin
Excerpt: In order to see if the mutations have an influence in cleavage, peptides containing the original reference sequences and their derivative containing positive selected mutations, were synthesized and tested against recombinant human furin. All substrates were cleaved after the double basic residues RR or KR as analyzed by Liquid Chromatography mass spectrometry (LC-MS) (Supplementary Figures S1–S3). The kcat/km ratio relates to the catalytic efficiency, meaning how fast in […] the enzyme reacts with the substrate once it encounters it. As a control, a peptide which contains a mutation previously shown to interfere with furin cleavage ([Strive et al., 2002]) was tested and as expected no cleavage was observed (Table 2 and Supplementary Figure S3).
Supplementary file Image_1.TIF: FIGURE S1 HPLC of furin-processed FRET substrates. […] Substrate and products were followed by fluorescence (Abz, ex320 nm; em420 nm) quenching (Eddnp, uv = 365 nm) indicating single cleavage site for all tested sequences. (A) gB3_22. (B) gB_20. (C) gB3_26 (D) gB2_18. (E) gB2_13. (F) gB2_19. Click here for additional data file.
Supplementary file Image_2.TIF: FIGURE S2 Mass spectra of furin-processed substrates. […] (A) gB3_22 substrate and products (1549.3, 678.7, and 888.7 Da). (B) gB2_13 (1634.4, 706.7, and 945.7 Da). (C) gB_20 (1604.3, 706.7, and 915.6 Da). […]

[3] = versus genotype 3 reference peptide (gB3_22)

| Substance | Km (recombinant human furin [1]) | kcat (recombinant human furin [1]) | processing by furin (cleavage observed or not) (recombinant human furin [2]) | decrease in kcat/km ratio compared to the reference sequence (recombinant human furin [1]; [3]) | increase in the km compared to the reference sequence (recombinant human furin [1]; [3]) | increase of the kcat/km ratio compared to the reference sequence (recombinant human furin [1]; versus genotype 2 reference sequence (gB2_13)) |
| --- | --- | --- | --- | --- | --- | --- |
| RTKR↓STGNTTT [gB3_22] | 0.02 µM | 0.25 s⁻¹ |  |  |  |  |
| RTRR↓SMSDNNT [gB2_18, FRET peptide of gB genotype 2 with the positively selected mutation T462M] | 1.65 µM | 3.01 s⁻¹ |  |  |  |  |
| RTRR↓SASDNNT [gB2_20, FRET peptide of gB genotype 2 with the positively selected mutation T462A] | 0.69 µM | 4.06 s⁻¹ |  |  |  |  |
| ATRASTSDNNT |  |  | not processed by furin |  |  |  |
| RTRR↓STSDNNT [gB2_13] | 3.19 µM | 2.24 s⁻¹ |  |  |  |  |
| RTKR↓DTGNTTT [gB3_26, FRET peptide of gB genotype 3 with the positively selected mutation S461D] | 0.43 µM | 1.89 s⁻¹ |  | threefold | 20 times |  |
| RTRR↓SRSDNNT [gB2_19, FRET peptide of gB genotype 2 with the positively selected mutation T462R] | 0.23 µM | 5.06 s⁻¹ |  |  |  | 31 fold |
